Source: patent US7294491B2 (Ajinomoto Co., Inc., priority 2003, dated 2007)

Assays:
[1] = precipitation concentration (super solubility) of L-glutamic acid in culture medium at pH 4.5 with added L-lysine; assay type: physicochemical, Pantoea ananatis AJ13601; conditions: pH 4.5 culture
Description: Cells of the Pantoea ananatis AJ13601 strain cultured at 30° C. for 14 hours in the LBG agar medium (10 g/L of trypton, 5 g/L of yeast extract, 10 g/L of NaCl, 15 g/L of agar) containing 25 mg/L of tetracycline hydrochloride and 25 mg/L of chloramphenicol were scraped from one plate and inoculated into 300 ml of seed culture medium having the following composition and contained in a 1 L-volume jar fermenter, and seed culture was performed at 34° C. and pH 6.0.
The pH was adjusted to 6.0 by adding ammonia gas during the culture. The seed culture was finished by observing depletion of the saccharide in the medium as an index, and the seed culture medium of 20% volume of the main culture medium was inoculated into 300 ml of the main culture medium contained in a 1 L-volume jar fermenter to perform the main culture under the conditions of 34° C. and pH 4.5. The composition of the main culture medium is shown below.
The pH was adjusted to 4.5 by adding ammonia gas during the culture. After the saccharide in the medium was consumed and depleted, 700 g/L of glucose aqueous solution was continuously added (6 ml/hr).
The liquid supernatant of the culture medium was obtained by centrifuging the culture medium at 10000×G for 1 minute. The polymorphism of crystals which precipitated in the culture medium was determined by microscopic observation.

[2] = crystal form of L-glutamic acid crystals precipitated in a cooling-crystallization system with added amino acid; assay type: physicochemical; conditions: FIG. 7

Row | Compound | concentration of added L-lysine above which α-form crystals form naturally without seed crystals [1] | control of precipitated L-glutamic acid crystal form by added amino acid ([2]; pH 4.5, super saturation 2, 34° C.) | control of precipitated L-glutamic acid crystal form by added amino acid ([2]; pH 3.2, super saturation 2, 34° C.) | control of precipitated L-glutamic acid crystal form by added amino acid ([2]; pH 4.5 or more, super saturation 2, 34° C.)
1 | NCCCC[C@H](N)C(=O)O [L-lysine] | exceeds 900 mg/L | could be controlled to the α-form |  | 
2 | N[C@@H](Cc1ccccc1)C(=O)O [L-phenylalanine] |  |  | showed the same effect | such an effect could not be observed
